For one experiment, the system named is HeLa. Briefly: Cytotoxicity against human HeLa cells. Type of experiment: functional, cell-based.
The test system of a further experiment is HepG2. Briefly: Cytotoxicity against human HepG2 cells. Format: functional, cell-based.
In another experiment the test system is BGC-823. Briefly: Cytotoxicity against human BGC823 cells. Type of experiment: cell-based.

For orientation: IC50 means the point on the concentration scale where inhibition reaches its midpoint. A lower IC50 goes with greater potency in that assay. As to `CC(=O)O[C@H]1CC[C@@]2(C)[C@H](CC[C@@H]3[C@@H]2CC[C@]2(C)[C@@H](c4ccc(=O)oc4)CC[C@]32O)C1`, the IC50 in the experiment on HeLa was found to be 1140 nM; with HepG2, 740 nM; in the experiment with BGC-823, 700 nM.

Take `CC(=O)O[C@H]1CC[C@@]2(C)[C@H](CC[C@@H]3[C@@H]2CC[C@]2(C)[C@@H](c4ccc(=O)oc4)[C@@H](OC(C)=O)[C@@H](O)[C@]32O)C1`: the IC50 with HeLa was 450 nM; with HepG2, 3100 nM; in the experiment on BGC-823, 3370 nM.

For `CC(=O)O[C@H]1CC[C@@]2(C)[C@H](CC[C@@H]3[C@@H]2CC[C@]2(C)[C@@H](c4ccc(=O)oc4)[C@@H](OC(C)=O)[C@H]4O[C@]342)C1`, the figures for the IC50 with HeLa, in the experiment on HepG2 and with BGC-823 were 1090 nM, 6440 nM and 4110 nM, respectively.

For the compound `CC(=O)O[C@H]1CC[C@@]2(C)[C@H](CC[C@@H]3[C@@H]2CC[C@]2(C)[C@@H](c4ccc(=O)oc4)C[C@H]4O[C@]342)C1`, the IC50 in the experiment with HeLa was over 50000 nM; with HepG2, over 50000 nM; in the experiment with BGC-823, 19800 nM.

As for `C[C@]12CC[C@H](O)C[C@H]1CC[C@@H]1[C@@H]2CC[C@]2(C)[C@@H](c3ccc(=O)oc3)CC[C@]12O` [BUFALIN], the results for the IC50 in the experiment on HeLa, in the experiment with HepG2 and in the experiment with BGC-823 were 730 nM, 640 nM and 990 nM, respectively.

On to `C[C@]12CC[C@H](O)C[C@H]1CC[C@@H]1[C@@H]2CC[C@]2(C)[C@@H](c3ccc(=O)oc3)C[C@H]3O[C@]132` [BUFOGENIN], for which the IC50 in the experiment on HeLa was over 50000 nM; in the experiment on HepG2, over 50000 nM; in the experiment with BGC-823, 7890 nM.

For the compound `CC(=O)O[C@H]1[C@H]2O[C@]23[C@@H]2CC[C@@H]4C[C@@H](O)CC[C@]4(C)[C@H]2CC[C@]3(C)[C@H]1c1ccc(=O)oc1` [CINOBUFAGIN], the IC50 in the experiment on HeLa came to 760 nM; in the experiment with HepG2, 5200 nM; in the experiment with BGC-823, 8500 nM.

Consider `CC(=O)O[C@H]1C(=O)[C@@]2(C)[C@H]([C@H](OC(=O)c3ccccc3)[C@]3(O)C[C@H](OC(=O)[C@H](O)[C@@H](NC(=O)c4ccccc4)c4ccccc4)C(C)=C1C3(C)C)[C@]1(OC(C)=O)CO[C@@H]1C[C@@H]2O` [PACLITAXEL], for which the IC50 in the experiment with HeLa turned out to be 20 nM; in the experiment on HepG2, 820 nM; in the experiment with BGC-823, 1150 nM.
